Experimental data from article PMC10783034, “Pharmacokinetic and pharmacodynamic evaluation of the atypical tetracyclines chelocardin and amidochelocardin in murine infection models” (Microbiology Spectrum, 2023).
In brackets after ≈: the same amount, converted by molar mass. Each block holds one compound with its values, some of them ahead of it.

Legend:
E. coli ATCC 25922 [1] = assay: Neutropenic thigh infection model in CD-1 mice; assay type: in vivo; settings: 20 mg/kg IV BID, positive control
Description: (§1) The inoculum for K. pneumoniae ATCC 43816 was prepared freshly as described previously to yield 1 × 10^4 cfu/mL ([56]). The inoculum of the E. coli ATCC 25922 was diluted from a frozen stock to 1.4 × 10^6 cfu/ml. N = 6 animals per group were used for both tested strains. N = 4 mice were used in the pre-treatment group in the neutropenic thigh infection model with E. coli ATCC 25922. Mice were rendered neutropenic by administration of 150 mg/kg and 100 mg/kg cyclophosphamide intraperitoneally on days −4 and −1, respectively. On the day of infection (day 0), mice received 30 µL of the inoculum of K. pneumoniae ATCC 43816 into each lateral thigh under isoflurane anesthesia, corresponding to 6 × 10^2 cfu/mouse. In the model with E. coli, mice received 50 µL of the inoculum of E. coli into each lateral thigh under isoflurane anesthesia, corresponding to 1.4 × 10^5 cfu/mouse. Whilst still under anesthesia, mice were administered a dose of Buprenorphine (0.03 mg/kg) subcutaneously for pain relief. 24 hours after infection, mice were euthanized by slowly introducing CO2 and cardiac puncture to remove blood from the heart immediately after death. Kidneys and thighs were aseptically removed. 24 hours after infection, the clinical score of every individual animal was assessed. Clinical scoring comprises the assessment of different parameters such as spontaneous behavior, posture, appearance, and provoked behavior. Each parameter was assessed with a score of 0 to 3 (ascending severity from 0 to 3). The humane endpoint was reached when the clinical score of a single parameter was 3 or if the total clinical score was higher than 8. Whole blood was collected into Eppendorf tubes coated with 0.5 M EDTA. Organs were homogenized in 0.9% NaCl solution. Organs and blood were plated onto agar plates in duplicates in serial dilutions and incubated at 37°C for 24 hours. 25 µL per dilution of the homogenized organ was spotted onto agar plates. In addition, 1 mL of homogenized organ is streaked onto an agar plate in technical duplicates. If no single colony is observed then, this would result in 0 cfu/mL. Thus, the threshold of detection is 0 log10 cfu/g. The groups used in the different neutropenic thigh infection models are found in Tables S4 through S7. In brief, levofloxacin with 3.3 mg/kg TID IP was used as a positive control antibiotic for the K. pneumoniae model, whereas ciprofloxacin with 20 mg/kg BID IV was used for the E. coli model, respectively. The rationale for TID dosing was based on the PK/PD index of fAUC/MIC for fluoroquinolones ([57] [–] [59]). […] Moreover, CHD and CDCHD were administered at 10 mg/kg SC QID (t = 1,3,5,7 hours), 15 mg/kg SC TID (t = 1,4,7 hours), and 50 mg/kg SC QD (t = 1 hour) (Tables S5 and S6). In the E. coli neutropenic thigh infection model, CHD and CDCHD, respectively, were administered at 50 mg/kg IV QD (t = 1 hour) and 15 mg/kg IV BID (t = 1 and 6 hours) (Table S7).
(§2) For the neutropenic thigh infection model with E. coli ATCC 25922, the thighs were regarded as two independent infection sites throughout the experiment. For statistical analysis, individual thighs (left and right) were treated as separate samples although these were not completely independent values. For the neutropenic thigh infection model with K. pneumoniae ATCC 43816, the individual thighs (left and right) were treated as one sample. For the efficacy models, the non-parametric Kruskal-Wallis test was used with GraphPad Prism 9.4.1. For the ascending urinary tract infection model, an ordinary one-way ANOVA with Dunnett’s multiple comparison test was used with GraphPad Prism 9.4.1.

E. coli ATCC 25922 [2] = assay: MIC determination; assay type: cell-based; settings: Escherichia coli, ATCC25922; MHB medium; read-out: MIC
Description: (§3) The assay was conducted as described previously ([54]) with the following modifications. The MIC was tested against the K. pneumoniae strain ATCC 43816 in an MHB (not cation-adjusted) medium. CHD and CDCHD were tested in concentrations ranging from 0.078 to 10 µg/mL. Moreover, the MIC was determined for the following strains: K. pneumoniae DSM-30104, E. faecium DSM-20477, S. aureus DSM-346, P. aeruginosa DSM-11128, A. baumannii DSM-30008, E. aerogenes DSM-30053, E. coli ATCC 25922, and E. coli C175-94. All strains were grown in MHB medium, except for E. faecium, which was grown in TSB. CHD, epi-CDH, and CDCHD were tested in concentrations ranging from 0.125 to 64 µg/mL as described previously ([19]).

E. coli C175-94 [3] = assay: MIC determination; assay type: cell-based; settings: Escherichia coli, C17594; MHB medium; read-out: MIC
Description: as §3

[4] = Histopathological analysis of kidneys and bladder in the ascending urinary tract infection model (satellite groups); assay type: in vivo, mice; set-up: histopathological score Papilla / histopathological score Bladder: scale not given here
Description: (§4) The model was conducted as described previously ([27], [60]). In brief, n = 21 animals were used per group in the main study, and n = 3 animals per group in satellite groups for histopathological analysis. Three days before the start of the study and during the study, mice had free access to 5% glucose as drinking water. Fresh overnight colonies of E. coli from a 5% horse blood agar plate were suspended in PBS pH 7.4 to approximately 10^9 cfu/mL. Approximately 1 hour before inoculation, mice were treated orally with […] Nurofen (20 mg ibuprofen/mL corresponding to approximately 30 mg/kg) as a pain relief. Urine was removed from the bladder by gently pressing the abdomen and mice were anaesthetized with 0.15 mL Zoletil mix SC. Thereafter, the mice were inoculated. A syringe with a catheter, containing the bacterial suspension was inserted via the urethra into the bladder and 50 µL of the inoculum was slowly injected into the bladder. Hereafter, the mouse was placed in the cage and kept in a warming cabinet until fully awake (approximately 4 hours). The mice were treated with CHD (12 mg/kg SC BID), CDCHD (12 mg/kg SC BID), gentamicin (100 mg/kg SC BID), or vehicle BID (2nd dose was administered approximately 6 hours after the 1st dose on each day) on day 1, that is, first dose around 24 hours post-infection, and day 2 post-inoculation. The mice were observed during the study and scored based on their behavior and clinical signs. Clinical scoring comprised assessment of piloerection in the skin, activity (movement, curiosity), and appearance of eyes. The scoring range comprised 0–4. In our model, a maximum score of 1; thus, only mild discomfort was observed. On day 3 post-inoculation and after sampling urine, mice were euthanized by cervical dislocation, and bladder and kidneys were removed from 21 mice in each treatment group aseptically for cfu determination. The bladder and kidneys were stored at −80°C and later homogenized in 0.5 or 1 mL saline, respectively. Colony counts of urine were determined immediately. From the three additional mice in each treatment group (satellite groups), urine and plasma were sampled and frozen at −80°C, and bladders, kidneys, and liver were collected in 4% buffered formalin. Cfu was determined in urine samples within 2–3 hours after sampling. Frozen organs were thawed and homogenized with steel beads using a tissue lyser. All samples, urine, kidney, and bladder, were 10-fold diluted in saline and 20 µL spots were applied on blue agar plates in duplicates. In addition, undiluted samples of urine (2–100 μL depending on the available amount of urine) were spread on a separate agar plate to determine the colony counts at the lowest possible detection level. All agar plates were incubated for 18–22 hours at 35°C in ambient air.
Approximately 3 µm thick sections of formalin-fixed, paraffin-embedded samples of liver and kidney were analyzed blinded, and randomized to the experimental groups by a trained veterinarian. […] Kidneys were analyzed for changes in the glomeruli (not found), tubular dilation (1 = mild or up to 20% of tubuli affected, 2 = moderate or 25-40% of tubuli affected, 3 = severe 50% or more), and inflammatory infiltrate in the pelvis (1 = mild, 2 = moderate, 3 = severe).

E. coli C175-94 [5] = assay: Ascending urinary tract infection model in OF-1 mice; assay type: in vivo; settings: CHD/CDCHD 12 mg/kg SC BID, gentamicin 100 mg/kg SC BID
Description: as §4, §2

K. pneumoniae ATCC 43816 [6] = assay: Neutropenic thigh infection model in CD-1 mice; assay type: in vivo; settings: levofloxacin 3.3 mg/kg IP TID
Description: as §1, §2

K. pneumoniae ATCC 43816 [7] = assay: MIC determination; assay type: cell-based; settings: Klebsiella pneumoniae, ATCC43816; MHB (not cation-adjusted) medium; read-out: MIC
Description: as §3

[8] = infected mice, CHD/CDCHD 12 mg/kg SC BID, gentamicin 100 mg/kg SC BID
[9] = 24 hours after infection, CHD/CDCHD 10 mg/kg SC QD or BID, vs vehicle

SMILES: O=C(O)c1cn(C2CC2)c2cc(N3CCNCC3)c(F)cc2c1=O [ciprofloxacin, reference compound]
- bacterial burden in the thigh, compared with CHD and CDCHD (E. coli ATCC 25922 [1]): exerted a stronger effect
- MIC (E. coli ATCC 25922 [2]): 0.008 µg/mL (≈ 0.0241 µM)

SMILES: CNC(C)C1CCC(N)C(OC2C(N)CC(N)C(OC3OCC(C)(O)C(NC)C3O)C2O)O1 (stereo not drawn) [gentamicin, reference compound]
- MIC (E. coli C175-94 [3]): 0.75 µg/mL (≈ 1.57 µM)
- histopathological score Bladder ([4]; animal No. 1): 1
- histopathological score Bladder ([4]; animal No. 2): 0
- histopathological score Bladder ([4]; animal No. 3): 1
- histopathological findings in bladder [4, 8]: mild, focal, submucosal inflammatory aggregates
- histopathological findings in kidneys [4, 8]: only a mild tubulus dilation without inflammatory cells in the renal pelvis
- animals with sterile kidneys (E. coli C175-94 [5]; control animals 23.8%): 95.2%
- bacterial burden in kidneys (E. coli C175-94 [5]; day 3, vs vehicle): strong and significant reduction
- bacterial burden in the bladder (E. coli C175-94 [5]; day 3, vs vehicle): The same was observed for gentamicin

- MIC (K. pneumoniae ATCC 43816 [7]): 0.08 µg/mL (≈ 0.221 µM)
SMILES: C[C@H]1COc2c(N3CCN(C)CC3)c(F)cc3c(=O)c(C(=O)O)cn1c23 [levofloxacin, reference compound]
- bacterial burden in blood (K. pneumoniae ATCC 43816 [6]; [9]): The same was found in blood
- bacterial burden in the thigh (K. pneumoniae ATCC 43816 [6]; [9]): A significant reduction of bacterial burden
- bacterial burden in the kidney (K. pneumoniae ATCC 43816 [6]; higher-dose studies: 10 mg/kg SC QID, 15 mg/kg SC TID, 50 mg/kg SC QD): did not reduce bacterial burden with statistical significance
